The results in this text go back to US20230250393A1, “PRE-TREATING CARDIOMYOCYTES WITH ANTI-ARRHYTHMIC DRUGS TO REDUCE ENGRAFTMENT ARRHYTHMIA” (priority 2022, published 2023).

Data set [1] relates to engraftment arrhythmia (EA). To be noted: for Effect on HR (heart rate) during EA / Effect: response on EA burden / Effect on rhythm: cardioversion / restoration of sinus rhythm: acute response, infarcted pigs with hESC-CM transplant in EA, dosages and routes as in Table 1; for Effect on EA heart rate and rhythm in the screen (overall): short-term intravenous infusion or oral treatment. The text has this: The objective of this study was to identify a pharmacological regimen to attenuate arrhythmias following cardiac remuscularization therapy. This study was designed in two phases: the first, to observe the natural history of EA and screen various antiarrhythmic agents for efficacy, and the second, to test for efficacy (FIG. 1). All subjects were 30-40 kg castrated male Yucatan minipigs between 6-13 months of age (S&S Farms). In Phase 1, nine subjects underwent cardiac remuscularization therapy with 500×10^6 hESC-CM delivered by direct surgical transepicardial injections or later, by percutaneous transendocardial injections. The first four subjects (one non-infarcted and three infarcted) were followed to learn the natural history of EA and establish clinical endpoints and parameters for the Phase 2 drug trial. The subsequent five subjects underwent systematic dosing with antiarrhythmic agents with continuous electrocardiography (ECG) monitoring to determine effect on rhythm and rate (Table 1).
(§1) Telemetric ECG was continuously monitored in real-time from the time of myocardial infarction to detect the primary endpoint of cardiac death or unstable EA. Automated quantification of heart rate and arrhythmia burden was performed offline by a board-certified cardiologist using the ecgAUTO™ 3.3.5.10 software package (EMKA Technologies). Arrhythmia was defined as an ectopic beat (e.g. premature ventricular contraction) or rhythm (e.g. idioventricular rhythm, ventricular tachycardia). […] Heart rate and arrhythmia burden were quantified for two continuous minutes every five minutes (40% of total rhythm was counted) and presented as daily averages.
Subjects were administered multiple trials antiarrhythmics and observed for acute response by continuous ECG monitoring. Intravenous agents were delivered as a bolus dose over 2 minutes. Oral agents were administrated by direct observation in a minimum of apples, apple sauce or pumpkin puree with daily feeding and dosed daily for dose escalation. A washout period of at least three days was provided between agents. Amiodarone was administered as the last agent for testing given concern for prolonged half-life and elimination kinetics. All agents were tested in at least two subjects.
In Phase 1 of the study, the inventors screened six canonical antiarrhythmic agents broadly targeting sodium channels, potassium channels, and beta-adrenergic receptors: lidocaine (Ib, sodium channel inhibitor), flecainide (Ic, sodium channel inhibitor), propafenone (Ic, sodium channel inhibitor), amiodarone (III, potassium channel inhibitor), sotalol (III, potassium channel inhibitor) and metoprolol (β1-adrenergic receptor inhibitor) for effect on EA heart rate and rhythm. In addition, the funny current/HCN4 channel antagonist, ivabradine, was tested (Table 1). This series were not meant to be definitive but rather to rapidly identify the candidate agents.

The nature of data set [2]: Amiodarone drug monitoring by liquid chromatography-mass spectrometry. In kind it is in vivo. Particulars: trough, within 1 week of discontinuation of chronic oral amiodarone, 6 pigs, mean ± SEM. On the procedure: FIG. 8 Plasma amiodarone levels in pigs. Amiodarone levels were measured in plasma by a custom liquid chromatography-mass spectrometry assay. Chronic oral amiodarone in six pigs was discontinued after achieving electrical maturation and stabilization of engraftment arrythmia. Serum through concentrations of amiodarone were assayed weekly including 3-4 weeks after discontinuation.
A novel liquid chromatography—mass spectrometry assay was established for amiodarone to monitor steady state serum levels in the porcine model and guide oral dosing to ensure efficacy and avoid dose-related toxicity. A target serum level of 1.5-4.0 μg/ml was extrapolated from prior human pharmacokinetic studies (16,17). Elimination kinetics after discontinuation of oral amiodarone therapy were also studied by obtaining weekly trough concentrations in 6 pigs (subjects 6, 7, 8, 13, 14, 16) (FIG. 8).

The subject of data set [3] is engraftment arrhythmia (EA). It is filed as in vivo. Particulars: chronic amiodarone. On the procedure: as §1
Data are presented as mean±standard error of the mean (SEM).

Read-outs that look alike come from different tables or passages of the source. Marks after values point to notes of the source that are not given here.

Consider `CCCCc1oc2ccccc2c1C(=O)c1cc(I)c(OCCN(CC)CC)c(I)c1` [Amiodarone, amiodarone], for which, in data set [1], the “Effect on HR (heart rate) during EA” value is “Modest HR effect”. Moreover, the “Average serum amiodarone after discontinuation” value in data set [2] was 0.42 ± 0.12 µg/mL. Further, the “Burden of EA, chronic treatment (in words)” value in data set [3] is listed as “reduced the burden of EA chronically”.

For `O=C(NCC1CCCCN1)c1cc(OCC(F)(F)F)ccc1OCC(F)(F)F` (stereo not shown) [Flecainide, flecainide], in data set [1], the “Effect on HR (heart rate) during EA” value is listed as “No response on HR”; the “Effect: response on EA burden” value was “No response”; the “Effect on EA heart rate and rhythm in the screen (overall)” value (“Effect on EA heart rate and rhythm” for short) was “no significant effect”.

In the case of `COc1cc2c(cc1OC)CC(=O)N(CCCN(C)C[C@H]1Cc3cc(OC)c(OC)cc31)CC2` [Ivabradine, ivabradine], the “Effect: response on EA burden” value in data set [1] was “effect (PO only)**, no”. For the same molecule, in data set [1] (listed as ivabradine), the “Effect on HR (heart rate) during EA” value is recorded as “robust dose-dependent effects on heart rate” and the “Effect on rhythm: cardioversion / restoration of sinus rhythm” value is listed as “did not restore sinus rhythm”. In data set [1] (minipig, in vivo), the “Adverse effects observed in screening” value was “**Severe bradycardia”.

As for `CCN(CC)CC(=O)Nc1c(C)cccc1C` [Lidocaine, lidocaine], in data set [1], the “Effect on HR (heart rate) during EA” value is “Modest HR effect”; the “Effect on rhythm: cardioversion / restoration of sinus rhythm” value is recorded as “rare”; the “Effect on EA heart rate and rhythm” value is “no significant effect”.

Regarding `COCCc1ccc(OCC(O)CNC(C)C)cc1` (stereo not shown) [Metoprolol, metoprolol], in data set [1], the “Effect on HR (heart rate) during EA” value is given as “Moderate HR effect (IV only),”; the “Effect: response on EA burden” value is “no response on EA burden”; the “Effect on EA heart rate and rhythm” value is “no significant effect”.

Take `CC(C)NCC(O)c1ccc(NS(C)(=O)=O)cc1` (stereo not shown) [Sotalol, sotalol]: in data set [1], the “Effect on HR (heart rate) during EA” value is reported as “No response on HR”; the “Effect: response on EA burden” value is given as “No response”; the “Effect on EA heart rate and rhythm” value is on record as “no significant effect”.
